Source: patent US20250289810A1, “Compounds As NLRP3 Inflammasome Inhibitors And Their Use As Medicaments” (MAM-AGE S.R.L., priority 2022, published 2025)

Molecular target: T1, NLRP3 inflammasome (Mus musculus, UniProt Q8R4B8)
T1 construct: bone marrow-derived macrophages (BMDMs) from wild type (WT) mice first primed with 1 μg/ml lipopolysaccharide (LPS); endogenous in cells; host or cells: primary BMDMs from wild type mice
Experiment: Inhibition of NLRP3-mediated IL-1β release in BMDMs (LPS + Bz-ATP), ELISA
Type: cell-based
Settings: BMDM; BMDMs from WT mice, LPS + BzATP, compound at 1 μM; read-out: Inhibitory rate of IL-1β release

T1 sequence (Q8R4B8 whole entry): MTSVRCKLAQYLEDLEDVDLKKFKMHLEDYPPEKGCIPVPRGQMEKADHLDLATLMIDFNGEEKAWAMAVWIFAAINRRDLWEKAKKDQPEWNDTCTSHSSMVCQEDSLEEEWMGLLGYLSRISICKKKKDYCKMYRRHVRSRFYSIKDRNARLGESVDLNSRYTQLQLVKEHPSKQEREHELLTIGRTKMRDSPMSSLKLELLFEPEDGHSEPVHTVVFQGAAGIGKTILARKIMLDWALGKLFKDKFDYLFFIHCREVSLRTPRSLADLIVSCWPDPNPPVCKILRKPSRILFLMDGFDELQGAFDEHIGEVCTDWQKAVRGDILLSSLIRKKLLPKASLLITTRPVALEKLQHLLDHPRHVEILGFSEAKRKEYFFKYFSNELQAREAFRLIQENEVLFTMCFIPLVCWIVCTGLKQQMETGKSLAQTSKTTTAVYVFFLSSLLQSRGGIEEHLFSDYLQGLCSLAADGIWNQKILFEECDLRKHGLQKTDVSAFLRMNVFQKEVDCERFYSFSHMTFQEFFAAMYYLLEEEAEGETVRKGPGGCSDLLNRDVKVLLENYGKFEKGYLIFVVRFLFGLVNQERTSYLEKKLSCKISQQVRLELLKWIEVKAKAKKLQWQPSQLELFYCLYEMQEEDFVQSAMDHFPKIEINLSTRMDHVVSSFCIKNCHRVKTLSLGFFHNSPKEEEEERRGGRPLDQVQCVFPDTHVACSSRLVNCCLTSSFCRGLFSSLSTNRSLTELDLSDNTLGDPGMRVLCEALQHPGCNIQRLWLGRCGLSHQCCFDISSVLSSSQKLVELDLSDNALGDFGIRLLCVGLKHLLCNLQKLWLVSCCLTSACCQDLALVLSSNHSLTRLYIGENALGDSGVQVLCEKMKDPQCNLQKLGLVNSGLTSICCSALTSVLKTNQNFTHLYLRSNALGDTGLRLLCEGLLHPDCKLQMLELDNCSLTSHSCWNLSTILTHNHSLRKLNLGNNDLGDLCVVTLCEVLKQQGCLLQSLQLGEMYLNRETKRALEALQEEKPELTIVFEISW

`O=C(Nc1c2c(cc3c1CCC3)CCC2)C1CCCN1S(=O)(=O)c1ccc([N+](=O)[O-])cc1` (centres unmarked) [Compound 3a of Formula (IV), N-(1,2,3,5,6,7-hexahydro-s-indacen-4-yl)-1-((4-nitrophenyl)sulfonyl)pyrrolidine-2-carboxamide] was tested. Which inhibition at 1 µM did it give?
Its inhibition at 1 µM is 25.7%.

With `O=C(Nc1c2c(cc3c1CCC3)CCC2)C1CCCCN1S(=O)(=O)c1ccc([N+](=O)[O-])cc1` (centres unmarked) [Compound 3b of Formula (IV), N-(1,2,3,5,6,7-hexahydro-s-indacen-4-yl)-1-((4-nitrophenyl)sulfonyl)piperidine-2-carboxamide] as the molecule, how does the inhibition at 1 µM read?
Its inhibition at 1 µM is 52.4%.

For `Nc1ccc(S(=O)(=O)N2CCCC2C(=O)Nc2c3c(cc4c2CCC4)CCC3)cc1` (centres unmarked) [Compound 4a of Formula (IV), 1-((4-aminophenyl)sulfonyl)-N-(1,2,3,5,6,7-hexahydro-s-indacen-4-yl)pyrrolidine-2-carboxamide], which inhibition at 1 µM is on record?
The inhibition at 1 µM was 41.6%.

For `Nc1ccc(S(=O)(=O)N2CCCCC2C(=O)Nc2c3c(cc4c2CCC4)CCC3)cc1` (centres unmarked) [Compound 4b of Formula (IV), 1-((4-aminophenyl)sulfonyl)-N-(1,2,3,5,6,7-hexahydro-s-indacen-4-yl)piperidine-2-carboxamide], which inhibition at 1 µM is on record?
Its inhibition at 1 µM is 25.4%.

`CC(C)C[C@H](NS(=O)(=O)c1ccc([N+](=O)[O-])cc1)C(=O)Nc1c2c(cc3c1CCC3)CCC2` [Compound 6e of Formula (III), (S)—N-(1,2,3,5,6,7-hexahydro-s-indacen-4-yl)-4-methyl-2-((4-nitrophenyl)sulfonamido)pentanamide] was tested. Which inhibition at 1 µM did it give?
Its inhibition at 1 µM is 53.9%.

With `O=C(Nc1c2c(cc3c1CCC3)CCC2)[C@@H](NS(=O)(=O)c1ccc([N+](=O)[O-])cc1)c1ccccc1` [Compound 6f of Formula (III), (S)—N-(1,2,3,5,6,7-hexahydro-s-indacen-4-yl)-2-((4-nitrophenyl)sulfonamido)-2-phenylacetamide] as the molecule, how does the inhibition at 1 µM read?
The inhibition at 1 µM was 44.8%.

How did the inhibition at 1 µM turn out when `O=C(Nc1c2c(cc3c1CCC3)CCC2)[C@H](Cc1ccccc1)NS(=O)(=O)c1ccc([N+](=O)[O-])cc1` [Compound 6g of Formula (III), (S)—N-(1,2,3,5,6,7-hexahydro-s-indacen-4-yl)-2-((4-nitrophenyl)sulfonamido)-3-phenylpropanamide] was run?
The inhibition at 1 µM was 19.8%.

Which inhibition at 1 µM does the source give for `O=C(Nc1c2c(cc3c1CCC3)CCC2)[C@@H](Cc1ccccc1)NS(=O)(=O)c1ccc([N+](=O)[O-])cc1` [Compound 6h of Formula (III), (R)—N-(1,2,3,5,6,7-hexahydro-s-indacen-4-yl)-2-((4-nitrophenyl)sulfonamido)-3-phenylpropanamide] here?
The inhibition at 1 µM was 49.5%.

How did the inhibition at 1 µM turn out when `O=C(CCNS(=O)(=O)c1ccc([N+](=O)[O-])cc1)Nc1c2c(cc3c1CCC3)CCC2` [Compound 6k of Formula (III), N-(1,2,3,5,6,7-hexahydro-s-indacen-4-yl)-3-((4-nitrophenyl)sulfonamido)propanamide] was run?
Its inhibition at 1 µM is 36.5%.

For `C[C@H](NS(=O)(=O)c1ccc(N)cc1)C(=O)Nc1c2c(cc3c1CCC3)CCC2` [Compound 7b of Formula (III), (S)-2-((4-aminophenyl)sulfonamido)-N-(1,2,3,5,6,7-hexahydro-s-indacen-4-yl)propanamide], which inhibition at 1 µM is on record?
The inhibition at 1 µM was 17.3%.

How did the inhibition at 1 µM turn out when `CC(C)[C@H](NS(=O)(=O)c1ccc(N)cc1)C(=O)Nc1c2c(cc3c1CCC3)CCC2` [Compound 7c of Formula (III), (S)-2-((4-aminophenyl)sulfonamido)-N-(1,2,3,5,6,7-hexahydro-s-indacen-4-yl)-3-methylbutanamide] was run?
The inhibition at 1 µM was 50.2%.

`CC(C)[C@@H](NS(=O)(=O)c1ccc(N)cc1)C(=O)Nc1c2c(cc3c1CCC3)CCC2` [Compound 7d of Formula (III), (R)-2-((4-aminophenyl)sulfonamido)-N-(1,2,3,5,6,7-hexahydro-s-indacen-4-yl)-3-methylbutanamide] was tested. Which inhibition at 1 µM did it give?
Its inhibition at 1 µM is 8.4%.

With `CC(C)C[C@H](NS(=O)(=O)c1ccc(N)cc1)C(=O)Nc1c2c(cc3c1CCC3)CCC2` [Compound 7e of Formula (III), (S)-2-((4-aminophenyl)sulfonamido)-N-(1,2,3,5,6,7-hexahydro-s-indacen-4-yl)-4-methylpentanamide] as the molecule, how does the inhibition at 1 µM read?
The inhibition at 1 µM was 31.5%.

For `Nc1ccc(S(=O)(=O)N[C@H](C(=O)Nc2c3c(cc4c2CCC4)CCC3)c2ccccc2)cc1` [Compound 7f of Formula (III), (S)-2-((4-aminophenyl)sulfonamido)-N-(1,2,3,5,6,7-hexahydro-s-indacen-4-yl)-2-phenylacetamide], which inhibition at 1 µM is on record?
The inhibition at 1 µM was 16.1%.

Which inhibition at 1 µM does the source give for `Nc1ccc(S(=O)(=O)N[C@@H](Cc2ccccc2)C(=O)Nc2c3c(cc4c2CCC4)CCC3)cc1` [Compound 7g of Formula (III), (S)-2-((4-aminophenyl)sulfonamido)-N-(1,2,3,5,6,7-hexahydro-s-indacen-4-yl)-3-phenylpropanamide] here?
The inhibition at 1 µM was 38%.

With `Nc1ccc(S(=O)(=O)N[C@H](Cc2ccccc2)C(=O)Nc2c3c(cc4c2CCC4)CCC3)cc1` [Compound 7h of Formula (III), (R)-2-((4-aminophenyl)sulfonamido)-N-(1,2,3,5,6,7-hexahydro-s-indacen-4-yl)-3-phenylpropanamide] as the molecule, how does the inhibition at 1 µM read?
Its inhibition at 1 µM is 46.4%.

For `Nc1ccc(S(=O)(=O)NCCC(=O)Nc2c3c(cc4c2CCC4)CCC3)cc1` [Compound 7k of Formula (III), 3-((4-aminophenyl)sulfonamido)-N-(1,2,3,5,6,7-hexahydro-s-indacen-4-yl)propanamide], which inhibition at 1 µM is on record?
Its inhibition at 1 µM is 22.3%.

With `O=C(Nc1c2c(cc3c1CCC3)CCC2)[C@H](Cc1ccc(O)cc1)NS(=O)(=O)c1ccc([N+](=O)[O-])cc1` [Compound 8 of Formula (III), (S)—N-(1,2,3,5,6,7-hexahydro-s-indacen-4-yl)-3-(4-hydroxyphenyl)-2-((4-nitrophenyl)sulfonamido)propanamide] as the molecule, how does the inhibition at 1 µM read?
Its inhibition at 1 µM is 34.7%.

`NCCCC[C@H](NS(=O)(=O)c1ccc([N+](=O)[O-])cc1)C(=O)Nc1c2c(cc3c1CCC3)CCC2` [Compound 9 of Formula (III), (S)-6-amino-N-(1,2,3,5,6,7-hexahydro-s-indacen-4-yl)-2-((4-nitrophenyl)sulfonamido)hexanamide] was tested. Which inhibition at 1 µM did it give?
The inhibition at 1 µM was 47.5%.

With `NCCCC[C@H](NS(=O)(=O)c1ccc(N)cc1)C(=O)Nc1c2c(cc3c1CCC3)CCC2` [Compound 11 of Formula (III), (S)-6-amino-2-((4-aminophenyl)sulfonamido)-N-(1,2,3,5,6,7-hexahydro-s-indacen-4-yl)hexanamide] as the molecule, how does the inhibition at 1 µM read?
The inhibition at 1 µM was 28.4%.
